Results as given in ChEMBL document CHEMBL1201862, “PubChem BioAssay data set” (2004).
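Test compounds were applied to cells in 96-well plates for 48 hours at 5 doses. At the GI50, growth is halved.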 Calls of active or inactive are those of the source. Rule as the data show it: active = GI50 up to about 1.1 µM and inactive = higher.

Experiments:
Test in all cases: NCI-60 cell line screen, 48 h
SNB-19 = test system: SNB-19
SNB-75 = test system: SNB-75
LOX IMVI = test system: LOX IMVI
HCC 2998 = test system: HCC 2998
T47D = test system: T47D
NCI-H23 = test system: NCI-H23
CCRF-CEM = test system: CCRF-CEM
MDA-N = test system: MDA-N
MCF7 = test system: MCF7
Malme-3M = test system: Malme-3M
SF-268 = test system: SF-268
COLO 205 = test system: COLO 205
UACC-257 = test system: UACC-257
SK-MEL-28 = test system: SK-MEL-28
OVCAR-4 = test system: OVCAR-4
SF-295 = test system: SF-295
DU-145 = test system: DU-145
HT-29 = test system: HT-29
HOP-92 = test system: HOP-92
Hs-578T = test system: Hs-578T

Row | Compound | GI50 (SNB-19) | GI50 (SNB-75) | GI50 (LOX IMVI) | GI50 (HCC 2998) | GI50 (T47D) | GI50 (NCI-H23) | GI50 (CCRF-CEM) | GI50 (MDA-N) | GI50 (MCF7) | GI50 (Malme-3M) | GI50 (SF-268) | GI50 (COLO 205) | GI50 (UACC-257) | GI50 (SK-MEL-28) | GI50 (OVCAR-4) | GI50 (SF-295) | GI50 (DU-145) | GI50 (HT-29) | GI50 (HOP-92) | GI50 (Hs-578T)
1 | N#Cc1c(-c2ccccc2)c(/C=N/c2ccc(F)cc2)c(=O)n2c1[nH]c1ccccc12 | 28.3 µM (inactive) | 39 µM (inactive) | 23.8 µM (inactive) | 21.2 µM (inactive) | 27.7 µM (inactive) | 37 µM (inactive) | 15.6 µM (inactive) | 10.4 µM (inactive) | 36.6 µM (inactive) | 23.6 µM (inactive) | 29.4 µM (inactive) | 29.8 µM (inactive) | 28.5 µM (inactive) | 37.1 µM (inactive) | 40.6 µM (inactive) | 18.5 µM (inactive) |  |  |  | 
2 | CC(C)OC(=O)[C@H]1ON2O[C@H](O[C@@H]3CCCC[C@H]3c3ccccc3)C([Si](C)(C)c3ccccc3)[C@H]3OC(=O)[C@@H]1C32 (some centres not stated) | > 100 µM (inactive) | > 100 µM (inactive) | > 100 µM (inactive) | > 100 µM (inactive) | 87.5 µM (inactive) | > 100 µM (inactive) | 94 µM (inactive) |  | 30.1 µM (inactive) |  | > 100 µM (inactive) | > 100 µM (inactive) | > 100 µM (inactive) | > 100 µM (inactive) |  | > 100 µM (inactive) | > 100 µM (inactive) | > 100 µM (inactive) | > 100 µM (inactive) | > 100 µM (inactive)
3 | CCCCCc1cc2cc3c(c(O)c2c(=O)[nH]1)C1(CCC3)C(=O)c2c(O)ccc(O)c2C1=O | > 100 µM (inactive) | 58.2 µM (inactive) | > 100 µM (inactive) | > 100 µM (inactive) |  | > 100 µM (inactive) | > 100 µM (inactive) | > 100 µM (inactive) | > 100 µM (inactive) | > 100 µM (inactive) | > 100 µM (inactive) | > 100 µM (inactive) | > 100 µM (inactive) | > 100 µM (inactive) | 88.5 µM (inactive) | > 100 µM (inactive) | > 100 µM (inactive) | > 100 µM (inactive) | > 100 µM (inactive) | > 100 µM (inactive)
4 | COC(=O)C(=O)C(C(=O)C(=O)Nc1cc([N+](=O)[O-])ccc1C#N)c1nc2ccccc2nc1O (configuration not stated) | > 100 µM (inactive) | > 100 µM (inactive) | > 100 µM (inactive) | > 100 µM (inactive) |  | > 100 µM (inactive) | > 100 µM (inactive) |  |  | > 100 µM (inactive) | > 100 µM (inactive) | > 100 µM (inactive) | > 100 µM (inactive) | > 100 µM (inactive) | > 100 µM (inactive) | > 100 µM (inactive) |  | > 100 µM (inactive) | 40.6 µM (inactive) | 
5 | C=C1C(=O)OC2/C=C(\C)C(OC(C)=O)C3OC3C(C)(O)CC(OC(=O)/C(C)=C/C)C12 (configuration not stated) | 18.7 µM (inactive) | 21.9 µM (inactive) | 15.3 µM (inactive) | 8.38 µM (inactive) |  | 12.8 µM (inactive) | 2.81 µM (inactive) |  |  | 8.69 µM (inactive) | 10.9 µM (inactive) | 3.86 µM (inactive) | 14.7 µM (inactive) | 4.95 µM (inactive) | 33.8 µM (inactive) | 19.1 µM (inactive) |  | 14.9 µM (inactive) | 5.52 µM (inactive) | 
6 | C=Cc1ccccc1C1C(C(=O)OCC)=C(C)N=C2OC(C(=O)OC)C(=O)N21 (configuration not stated) | > 100 µM (inactive) | > 100 µM (inactive) | > 100 µM (inactive) | > 100 µM (inactive) | > 100 µM (inactive) | > 100 µM (inactive) | > 100 µM (inactive) | > 100 µM (inactive) | > 100 µM (inactive) | > 100 µM (inactive) | > 100 µM (inactive) | > 100 µM (inactive) | > 100 µM (inactive) | > 100 µM (inactive) | > 100 µM (inactive) | > 100 µM (inactive) | > 100 µM (inactive) | > 100 µM (inactive) | > 100 µM (inactive) | 
7 | Cc1ccc(C(=O)/C=C(\O)C(=O)NC23CC4CC(CC(C4)C2)C3)cc1 |  | > 10 µM (inactive) | 0.851 µM (active) | > 10 µM (inactive) | > 10 µM (inactive) | 5.43 µM (inactive) | 5.92 µM (inactive) | > 10 µM (inactive) | 7.41 µM (inactive) | > 10 µM (inactive) | > 10 µM (inactive) | > 10 µM (inactive) | > 10 µM (inactive) | > 10 µM (inactive) | > 10 µM (inactive) | 5.86 µM (inactive) | 9.95 µM (inactive) | > 10 µM (inactive) | > 10 µM (inactive) | 
8 | Cc1c(NC(=O)c2cc([N+](=O)[O-])cc([N+](=O)[O-])c2)c(=O)n(-c2ccccc2)n1C | > 100 µM (inactive) |  | > 100 µM (inactive) |  |  | > 100 µM (inactive) | > 100 µM (inactive) | > 100 µM (inactive) | 61.7 µM (inactive) | 27.3 µM (inactive) | > 100 µM (inactive) | 20.1 µM (inactive) | 32.8 µM (inactive) | > 100 µM (inactive) | 43.9 µM (inactive) |  | > 100 µM (inactive) | 33.2 µM (inactive) | 76.9 µM (inactive) | > 100 µM (inactive)
9 | Cc1nc2c(O)cccc2c(=O)[nH]1 | 670 µM (inactive) | 233 µM (inactive) | 485 µM (inactive) | 418 µM (inactive) |  | 303 µM (inactive) | 305 µM (inactive) | 504 µM (inactive) | 621 µM (inactive) | 597 µM (inactive) | 467 µM (inactive) |  | 555 µM (inactive) | > 1000 µM (inactive) | 399 µM (inactive) | 351 µM (inactive) |  | 345 µM (inactive) | 845 µM (inactive) | 573 µM (inactive)
10 | Cc1cc(Cl)ccc1NC(=O)C1C(=O)N(c2ccc(Cl)cc2C)C(=O)/C1=N\N (configuration not stated) | 38.9 µM (inactive) | 42.6 µM (inactive) | 51.2 µM (inactive) | 24.9 µM (inactive) |  | 36.9 µM (inactive) | 28.6 µM (inactive) |  |  | 71.8 µM (inactive) | 26.5 µM (inactive) | 56.4 µM (inactive) | > 100 µM (inactive) | 52.5 µM (inactive) | 83.2 µM (inactive) | 28.9 µM (inactive) |  | 53.6 µM (inactive) | 34.7 µM (inactive) | 
11 | O=Cc1cn(CCCCCn2cc(C=O)c3ccccc32)c2ccccc12 | > 100 µM (inactive) |  | 41.5 µM (inactive) |  |  | > 100 µM (inactive) | > 100 µM (inactive) | > 100 µM (inactive) |  | > 100 µM (inactive) | 16.7 µM (inactive) | > 100 µM (inactive) | > 100 µM (inactive) |  |  | 10.4 µM (inactive) | > 100 µM (inactive) | > 100 µM (inactive) | > 100 µM (inactive) | 25 µM (inactive)
12 | Oc1ccc2c(c1)c1c(n2CCN2CCOCC2)-c2ccccc2CC1 | 24.8 µM (inactive) | 28 µM (inactive) | 23.6 µM (inactive) |  |  | 27.8 µM (inactive) | 32.3 µM (inactive) | 45.4 µM (inactive) | 31.6 µM (inactive) | 19.6 µM (inactive) | 30 µM (inactive) |  | 32.9 µM (inactive) | 18.6 µM (inactive) |  | 36.4 µM (inactive) |  | 24.2 µM (inactive) |  | 20.6 µM (inactive)
13 | Nc1ccccc1-n1c2c(c3ccccc3c1=O)C(=O)c1ccccc1-2 | 5 µM (inactive) | 11.8 µM (inactive) | 12.5 µM (inactive) | 21.8 µM (inactive) |  | 7.5 µM (inactive) | 48.9 µM (inactive) |  | 13.3 µM (inactive) | 16.3 µM (inactive) | 8.24 µM (inactive) | 26.1 µM (inactive) | 35.9 µM (inactive) | 36.5 µM (inactive) | 4.11 µM (inactive) | 9.1 µM (inactive) | 34 µM (inactive) | 18.4 µM (inactive) | 16.6 µM (inactive) | 
14 | N#CCCC(CC#N)N1CCN(CCO)CC1 (configuration not stated) | > 100 µM (inactive) | > 100 µM (inactive) |  | > 100 µM (inactive) | > 100 µM (inactive) | > 100 µM (inactive) | > 100 µM (inactive) |  | > 100 µM (inactive) | > 100 µM (inactive) | > 100 µM (inactive) | > 100 µM (inactive) | > 100 µM (inactive) | > 100 µM (inactive) | > 100 µM (inactive) | > 100 µM (inactive) | > 100 µM (inactive) | > 100 µM (inactive) | > 100 µM (inactive) | 61.4 µM (inactive)
15 | CN(/N=C/c1ccnc2ccccc12)c1ccc(Cl)cc1[N+](=O)[O-] | > 100 µM (inactive) | 26.6 µM (inactive) |  | > 100 µM (inactive) |  | 8.57 µM (inactive) | 50 µM (inactive) | > 100 µM (inactive) | 83.9 µM (inactive) | 70.3 µM (inactive) | 80 µM (inactive) | > 100 µM (inactive) | 9.59 µM (inactive) |  | 4.92 µM (inactive) | 15.1 µM (inactive) | > 100 µM (inactive) | 98.2 µM (inactive) | 25.8 µM (inactive) | 12.5 µM (inactive)
16 | BrC(c1cccc2ccccc12)c1cccc2ccccc12 | 43.4 µM (inactive) | 13.5 µM (inactive) | 15.8 µM (inactive) |  | 29.4 µM (inactive) | 19.9 µM (inactive) |  | 15.1 µM (inactive) |  | 4.94 µM (inactive) | 12.1 µM (inactive) |  | 19.2 µM (inactive) | 19.5 µM (inactive) | 17 µM (inactive) | 25.5 µM (inactive) | 13.6 µM (inactive) | 18.3 µM (inactive) | 13.5 µM (inactive) | 
